How the values were obtained:
pudendal vasculature = assay: Isolated perfusion of the pudendal vasculature, perfusion pressure response; design: species or system rat
Description: Vascular responses using the isolated perfusion of the pudendal vasculature preparation have been assessed. FIG. 3 illustrates the dose response curve to the α-adrenoceptor agonist methoxamine (MXA) alone. FIG. 4 illustrates the dose-response curve to endothelin alone.
Male Wistar rats (400-500 g), obtained from Charles River Laboratories (Montreal, Quebec, Canada), were housed individually under conditions of a 12 h light/12 h dark cycle (temperature of 22-24° C.), and were provided with Purina Rodent Chow and tap water ad libitum for at least two days before starting any experiment.
The rats were anaesthetized with sodium pentabarbital (60 mg/kg i.p.) and the lower abdominal aorta was exposed through a mid-line incision. The isolation of the pudendal vasculature was developed by sequential ligation of all branches of the abdominal aorta not directly supplying the pudendal vasculature. The following arteries were dissected free and ligated: iliaca, femoralis, poplitea, glutea cranial, umbilicalis, epigastria caudal, pudenda external, glutea caudal, obturatoria, circumflexa femoris lateral, circumflexa femoris medial. After heparinization (1000 U/kg), the abdominal aorta was cannulated with a smooth, blunted 19-gauge needle. The arterial catheter was placed caudad into the aorta and the vena cava was cut and vented freely through the widely open abdominal cavity. The tip of the needle was advanced down the aorta to the iliac bifurcation and sutured in place. […] The perfusate was infused for 10 min, to flush the penile vasculature of blood, before starting any experiment.
The perfusate consisted of dextran (15%, average molecular weight: 71,400 Da, Sigma, St. Louis, Mo., U.S.A.) in Tyrode's solution (pH 7.4), which was aerated with 95% O2 and 5% CO2. The composition of the Tyrode's solution was KCI 20, CaCl2.2H2O 32.3, MgCl2.6H2O 5.1, NaH2PO4.2H2O 6.2, NaHCO3 100, glucose 100, and NaCl 800 mg per 100 mL fluid. The perfusate was held in a reservoir, and passed through a bubble trapping/mixing chamber and heating bath by an injection port located prior to the bubble trap for the introduction of pharmacological agents. An in-line peristaltic pump was used to establish flow at 0.5 mL/kg/min (Minipuls 2, Gilson Medical Elec., Inc., Middleton, Wis., U.S.A.). Added pharmacological agents, methoxamine (MXA) and sodium nitroprusside (SNP), were delivered by a syringe pump (Harvard Apparatus Infusion/Withdrawal Pump, Millis, Mass., U.S.A.). A servo-controlled heat chamber served to maintain rectal temperature at 36-38° C.

Male Sprague-Dawley rats [1] = assay: Experiment 1: cumulative vasoconstrictor blockade following acute NO synthase inhibition, MAP response; assay type: in vivo, rat; details: for % of range (MAP lowering as % of MAPrange) / delta MAP (peak MAP lowering): sequential cumulative blockade, mean ± S.D.
Description: (§1) Male Sprague-Dawley rats (325-400 g) obtained from Charles River Laboratories (Montreal, Quebec, Canada) were housed individually under conditions of a 12 h light/12 h dark cycle, with room temperature at 22-24° C., and were provided with Purina Rodent Chow and tap water ad libitum for at least 2 days before any experiments were started.
The surgical method was based on the technique of Thompson et at. (Hypertension 20: 809-815 (1992)). In brief, rats were anesthetized with ketamine/xylazine (70/5 mg/kg i.p.), and the descending aorta distal to the kidneys was catheterized with small bore TEFLON® tubing (0.012-in. i.d., o.d. 30 gauge, Cole-Parmer, Laval, Quebec, Canada) inserted into vinyl tubing (0.02-in. i.d., 0.060-in, o.d., 23 gauge). […] The catheters were filled with heparinized saline (10 IU/mL) and held in place by a small amount of cyanoacrylate tissue glue at the puncture site. The catheters were tunneled subcutaneously and exteriorized at the back of the neck and sutured in place. Two days after surgery, MAP could be recorded (Narco Physiograph, E&I Instruments, Houston, Tex. or MacLab Data Acquisition System, ADInstruments, Milford, Mass., U.S.A.). After connection, an equilibration period of approximately 30 min was allowed for the determination of the steady state level of MAP before any recording began. Baseline MAP was determined from mean readings over 5 min, taken from each rat at 15 min intervals for at least 1 h prior to the start of any experiment. After obtaining a baseline MAP, the cumulative/sequential vasoconstrictor blockade was started. MAP values are expressed as an average MAP over 2-3 min following the establishment of a new steady state (i.e., MAP is no longer changing).
NOS was inhibited by a single i.p. injection of N^ω-nitro-L-arginine-methyl ester (L-NAME, Sigma, 100 mg/kg; 100 mg/mL 0.9% sterile saline solution, Baxter Corp., Toronto, Ontario, Canada). The α1-adrenoceptor antagonist prazosin® (Sigma Chemical Company, St. Louis, Mo., U.S.A.) at a dose of 1 mg/Kg (in 0.9% saline and 5% ethanol [vol/vol], total volume 1 mL/kg) was used to block the majority of the SNS induced peripheral vasoconstriction. The non-peptide AT1 receptor antagonist losartan® (Dupont-Merck, 30 mg/kg i.p.) was used to block the effects of Ang II. The V1/V2 receptor antagonist [β-mercapto-β, β-cyclopenta-methylenepropionyl, O-Et-Tyr2-Val4-Arg8]-vasopressin (AVP) (20 μg/kg/min i.v., Sigma) was utilized to block the effects of vasopressin. The effects of the endothelin vasoconstrictor system, via ETA and ETB receptors, were blocked with a commercially available endothelin antagonist PD 145065 (100 mg/kg/min i.v., bolus, donated by Parke-Davis Pharmaceuticals). Each rat in the study received all of the aforementioned vasoconstrictor antagonists (i.e., a cumulative/sequential blockade).
The interval between administration was up to 15 min, where a new steady state MAP had been established before the blockade of the next vasoconstrictor system.
All data are expressed as a peak MAP lowering as a mean±S.D. Comparison of means between groups at each treatment level was done using a Student's T-test with the Bonferroni correction method, where appropriate.

Male Sprague-Dawley rats [2] = assay: Experiment 2: effects of PD 145065 or losartan before or after NOS blockade on MAP; assay type: in vivo, rat
Description: as §1
The surgical method was based on the technique of Thompson et at. (Hypertension 20: 809-815 (1992)). […] Two days after surgery, MAP could be recorded (Narco Physiograph, E&I Instruments, Houston, Tex. or MacLab Data Acquisition System, ADInstruments, Milford, Mass., U.S.A.). […] Baseline MAP was determined from mean readings over 5 min, taken from each rat at 15 min intervals for at least 1 h prior to the start of any experiment. […] MAP values are expressed as an average MAP over 2-3 min following the establishment of a new steady state (i.e., MAP is no longer changing).
After obtaining appropriate baseline steady-state levels of MAP, the effects of administration of losartan (30 mg/kg i.p., n=3, under 30 mg/kg i.p. pentabarbital anesthetic) or PD 145065 (10 mg/kg/min, i,v., n=6, conscious rats previously catheterized) on resting MAP and then on the L-NAME (100 mg/kg, i.p.)-induced pressor response were assessed in two ways. […]

adult Wistar rats = assay: Apomorphine-induced erection model; assay type: in vivo, rat
Description: Using the well-established apomorphine (APO)-induced erection model (apomorphine 80 μg/kg, administered subcutaneously), we counted the erections per 30 min interval in adult Wistar rats, per the protocol of Heaton, J. P. W., et al. (1991)(43). Rats were pretested with apomorphine alone to confirm and quantify normal erectile response(control Groups A and B). Rats were then treated with L-NAME (100 mg/kg, administered intraperitoneally) alone, acutely (at<1 h) and at 3 h; or the combination of ETA/B antagonist (PD 145065, 5 mg/kg/min, continuous intravenous infusion)+L-NAME.

[3] = background statement; cited from earlier work
[4] = L-NAME (100 mg/kg i.p.) treated group

Compound: CC[C@H](C)[C@H](NC(=O)[C@H](CC(=O)O)NC(=O)[C@H](CC(C)C)NC(=O)[C@H](Cc1c[nH]cn1)NC(=O)[C@@H]1CSSC[C@H](N)C(=O)N[C@@H](CO)C(=O)N[C@H]2CSSC[C@H](NC(=O)[C@H](CCC(=O)O)NC(=O)[C@H](CCCCN)NC(=O)[C@H](CC(=O)O)NC(=O)[C@H](CCSC)NC(=O)[C@H](CC(C)C)NC(=O)[C@H](CO)NC(=O)[C@H](CO)NC2=O)C(=O)N[C@@H](C(C)C)C(=O)N[C@@H](Cc2ccc(O)cc2)C(=O)N[C@@H](Cc2ccccc2)C(=O)N1)C(=O)N[C@H](C(=O)N[C@@H](Cc1c[nH]c2ccccc12)C(=O)O)[C@@H](C)CC [Endothelin]
- Δ Perfusion Pressure (pudendal vasculature; Endothelin sub-pressor alone, methoxamine 0 μg/ml, n = 4): 0 mmHg

Compound: COC(=O)[C@@H](N)CCCNC(=N)N[N+](=O)[O-] [L-NAME, N^ω-nitro-L-arginine-methyl ester]
- steady state level of MAP (Male Sprague-Dawley rats [1]; L-NAME-treated animals, before vasoconstrictor blockade): 108±9 mmHg
- experimentally induced pressure increase as a result of NOS inhibition (Male Sprague-Dawley rats [1]; rats): 30-40%
- delta MAP response 20 min after L-NAME (Male Sprague-Dawley rats [2]; saline pre-treatment group, L-NAME 100 mg/kg i.p.): 40±8 mmHg
- mean number of erections per 30 min interval (adult Wistar rats; L-NAME 100 mg/kg i.p. alone, at 3 h, apomorphine-induced): 3.7 ± 1.38

Compound: CN1CCc2cccc3c2[C@H]1Cc1ccc(O)c(O)c1-3 [apomorphine]
- mean number of erections per 30 min interval (adult Wistar rats; Group-A (control): apomorphine 80 μg/kg s.c. alone, mean ± S.D.): 3.0 ± 1.31
- mean number of erections per 30 min interval (adult Wistar rats; Group-B (control): apomorphine 80 μg/kg s.c. alone, mean ± S.D.): 2.5 ± 0.58

Compound: CCCCc1nc(Cl)c(CO)n1Cc1ccc(-c2ccccc2-c2nn[nH]n2)cc1 [losartan]
- % of range (MAP lowering as % of MAPrange) (Male Sprague-Dawley rats [1]; [4]): 24 ± 12%
- delta MAP (peak MAP lowering) (Male Sprague-Dawley rats [1]; [4]): 25 ± 13 mmHg
- % of range (MAP lowering as % of MAPrange) (Male Sprague-Dawley rats [1]; saline control group): 27 ± 8%
- delta MAP (peak MAP lowering) (Male Sprague-Dawley rats [1]; saline control group): 20 ± 6 mmHg
- level of MAP after treatment (Male Sprague-Dawley rats [2]; losartan 30 mg/kg i.p., pentabarbital anesthetic, baseline 100±15 mmHg): 78±21 mmHg

Compound: COc1ccc(OC)c(C(O)C(C)N)c1 (stereo not drawn) [methoxamine]
- Δ Perfusion Pressure (pudendal vasculature; Control, methoxamine 0.1 μg/ml, n = 6): 0 mmHg
- Δ Perfusion Pressure (pudendal vasculature; Control, methoxamine 0.25 μg/ml, n = 6): 0 mmHg
- Δ Perfusion Pressure (pudendal vasculature; Control, methoxamine 0.5 μg/ml, n = 6): 0 mmHg
- Δ Perfusion Pressure (pudendal vasculature; Control, methoxamine 1.0 μg/ml, n = 6): 4 ± 1 mmHg
- Δ Perfusion Pressure (pudendal vasculature; Control, methoxamine 2.0 μg/ml, n = 6): 11 ± 2 mmHg
- Δ Perfusion Pressure (pudendal vasculature; Control, methoxamine 4.0 μg/ml, n = 6): 36 ± 11 mmHg
- Δ Perfusion Pressure (pudendal vasculature; Control, methoxamine 8.0 μg/ml, n = 6): 67 ± 24 mmHg
- Δ Perfusion Pressure (pudendal vasculature; Endothelin sub-pressor, methoxamine 0.1 μg/ml, n = 4): 0 mmHg
- Δ Perfusion Pressure (pudendal vasculature; Endothelin sub-pressor, methoxamine 0.25 μg/ml, n = 4): 34 ± 2 mmHg
- Δ Perfusion Pressure (pudendal vasculature; Endothelin sub-pressor, methoxamine 0.5 μg/ml, n = 4): 93 ± 30 mmHg
- Δ Perfusion Pressure (pudendal vasculature; Endothelin sub-pressor, methoxamine 1.0 μg/ml, n = 4): 168 ± 16 mmHg
- shift of MXA concentration-response (perfusion pressure) relationship to lower concentrations (pudendal vasculature; with low sub-pressor dose of endothelin vs MXA alone): more than 10 fold

Compound: COc1cc2nc(N3CCN(C(=O)c4ccco4)CC3)nc(N)c2cc1OC [prazosin]
- % of range (MAP lowering as % of MAPrange) (Male Sprague-Dawley rats [1]; [4]): 25 ± 10 %
- delta MAP (peak MAP lowering) (Male Sprague-Dawley rats [1]; [4]): 27 ± 14 mmHg
- % of range (MAP lowering as % of MAPrange) (Male Sprague-Dawley rats [1]; saline control group): 48 ± 8%
- delta MAP (peak MAP lowering) (Male Sprague-Dawley rats [1]; saline control group): 36 ± 6 mmHg

Compound: ET-1: endothelin-1, vasoconstrictor peptide
- potency as a vasoconstrictor relative to Ang II or catecholamines [3]: approximately 100 times

Compound: [β-mercapto-β, β-cyclopenta-methylenepropionyl, O-Et-Tyr2-Val4-Arg8]-vasopressin [(O-ET)VAVP]
- % of range (MAP lowering as % of MAPrange) (Male Sprague-Dawley rats [1]; [4]): 15 ± 9 %
- delta MAP (peak MAP lowering) (Male Sprague-Dawley rats [1]; [4]): 19 ± 13 mmHg
- % of range (MAP lowering as % of MAPrange) (Male Sprague-Dawley rats [1]; saline control group): 37 ± 15%
- delta MAP (peak MAP lowering) (Male Sprague-Dawley rats [1]; saline control group): 21 ± 11 mmHg

From patent US6586391B1, “Method of ameliorating erectile dysfunction” (Queen's University at Kingston, priority 1996, dated 2003)
